This passage reports EC50, IC50 and AC50 results from ChEMBL document CHEMBL1201862, “PubChem BioAssay data set” (2004).

The source made the active and inactive calls. Rule as the data show it, for most assays here: actives have a measured EC50 and inactives only a lower limit. Bounds are passed on as bounds.

The target in experiment [1] is T1, Heat shock factor protein 1 (Mus musculus, UniProt P38532).
T1 sequence (P38532 whole entry): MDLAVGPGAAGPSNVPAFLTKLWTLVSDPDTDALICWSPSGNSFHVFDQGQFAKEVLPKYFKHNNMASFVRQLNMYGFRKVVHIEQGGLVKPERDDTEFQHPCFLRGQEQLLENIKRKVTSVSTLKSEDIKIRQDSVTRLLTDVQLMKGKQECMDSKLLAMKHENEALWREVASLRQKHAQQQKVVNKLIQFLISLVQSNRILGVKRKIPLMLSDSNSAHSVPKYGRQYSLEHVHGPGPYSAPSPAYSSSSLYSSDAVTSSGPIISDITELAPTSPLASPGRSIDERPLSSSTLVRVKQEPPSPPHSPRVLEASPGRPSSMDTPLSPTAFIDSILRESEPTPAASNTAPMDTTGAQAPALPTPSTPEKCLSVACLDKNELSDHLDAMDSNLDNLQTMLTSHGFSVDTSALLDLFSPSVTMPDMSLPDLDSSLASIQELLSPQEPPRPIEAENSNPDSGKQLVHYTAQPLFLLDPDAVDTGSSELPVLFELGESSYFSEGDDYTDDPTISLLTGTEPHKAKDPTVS
Kind of experiment: HSF1 potentiators in luciferase reporter cells, confirmation, cell-based, NIH3T3, luminescence, dose retest (AID 435004).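 Also: stress induced by proteasome inhibitor MG132 added 30 min after compound; luciferase reporter driven by HSF1 response element in NIH3T3 cells; actives raise luminescence as potentiators of the MG132 stress response.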 It is filed as functional.

The nature of experiment [2]: C. albicans growth with fluconazole, confirmation, fluorescence, retest (AID 2467). The class given is functional, cell-based.
A short description of experiment [3]: NIH-3T3 fibroblast cytotoxicity, dose response, cytotoxicity control, cell-based, fluorescence, Alamar Blue, secondary assay (AID 2327).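 Also: NIH-3T3 mouse fibroblasts cultured with fluconazole at 8 µg/mL.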 It is filed as functional.
A further experiment has as its target Genome polyprotein (dengue virus type 2, UniProt P29990). Kind of experiment: Dengue-2 NS5 methyltransferase inhibitors, primary screen, biochemical, confirmation dose response (AID 588689). The class given is functional.
Experiment [4] deals with T2, Zinc finger protein mex-5 (Caenorhabditis elegans, UniProt Q9XUB2).
T2 sequence (Q9XUB2 whole entry): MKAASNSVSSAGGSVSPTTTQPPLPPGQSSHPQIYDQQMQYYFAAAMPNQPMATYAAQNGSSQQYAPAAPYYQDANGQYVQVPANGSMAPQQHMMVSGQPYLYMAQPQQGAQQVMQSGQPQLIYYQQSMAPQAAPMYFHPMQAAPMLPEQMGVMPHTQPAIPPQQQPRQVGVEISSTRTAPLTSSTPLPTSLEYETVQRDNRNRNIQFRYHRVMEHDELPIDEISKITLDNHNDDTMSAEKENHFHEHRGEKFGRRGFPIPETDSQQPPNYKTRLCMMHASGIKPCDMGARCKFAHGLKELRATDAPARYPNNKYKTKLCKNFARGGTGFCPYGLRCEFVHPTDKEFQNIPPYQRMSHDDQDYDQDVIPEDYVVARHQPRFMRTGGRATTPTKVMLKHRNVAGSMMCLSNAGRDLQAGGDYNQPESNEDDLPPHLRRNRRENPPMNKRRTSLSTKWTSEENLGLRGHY
As to the kind of experiment: MEX-5/TCR-2 RNA interaction inhibitors, dose response, biochemical, C. elegans, fluorescence polarization (AID 1960).

For experiment [5], the target named is T3, RNA-binding protein pos-1 (Caenorhabditis elegans, UniProt G5EF15).
T3 sequence (G5EF15 whole entry): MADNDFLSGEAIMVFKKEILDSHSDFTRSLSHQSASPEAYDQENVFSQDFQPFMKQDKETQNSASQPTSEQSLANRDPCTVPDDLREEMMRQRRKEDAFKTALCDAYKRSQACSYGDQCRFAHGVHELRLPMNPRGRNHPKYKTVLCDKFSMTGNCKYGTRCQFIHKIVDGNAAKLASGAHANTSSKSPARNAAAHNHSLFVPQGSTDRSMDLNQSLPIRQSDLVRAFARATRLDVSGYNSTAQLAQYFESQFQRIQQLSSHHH
Kind of experiment: inhibitors of POS-1/mex-3 RNA binding, dose response, biochemical, fluorescence polarization (AID 1964).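 Also: purified POS-1 fused to maltose binding protein made in E. coli; potency of compounds blocking POS-1 binding to fluorescent RNA.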

The next experiment has as its target Fatty acid synthase (Homo sapiens, UniProt P49327). As to the kind of experiment: FAS thioesterase domain inhibitors, dose response, biochemical, kinetic fluorescence intensity (AID 624326).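 Also: rate of fluorescence rise from hydrolysis of a fluorogenic O-methyl fluorescein ester substrate.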 It is filed as functional.
The target of experiment [6] is T4, Corticotropin-releasing factor receptor 2/Corticotropin-releasing factor-binding protein (Homo sapiens, UniProt P24387+Q13324).
T4 sequence (Q13324 whole entry): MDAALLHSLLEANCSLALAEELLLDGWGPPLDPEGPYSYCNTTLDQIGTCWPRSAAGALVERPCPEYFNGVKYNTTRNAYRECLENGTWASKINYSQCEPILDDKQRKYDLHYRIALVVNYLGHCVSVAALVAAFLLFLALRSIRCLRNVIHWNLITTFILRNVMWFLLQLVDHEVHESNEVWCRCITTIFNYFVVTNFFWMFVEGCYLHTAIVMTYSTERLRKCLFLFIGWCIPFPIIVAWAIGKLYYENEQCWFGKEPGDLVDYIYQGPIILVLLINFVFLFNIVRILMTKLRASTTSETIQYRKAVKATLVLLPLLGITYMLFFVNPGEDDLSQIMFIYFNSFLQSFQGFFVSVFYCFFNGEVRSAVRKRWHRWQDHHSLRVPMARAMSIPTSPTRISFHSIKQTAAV
T4 sequence (P24387 whole entry): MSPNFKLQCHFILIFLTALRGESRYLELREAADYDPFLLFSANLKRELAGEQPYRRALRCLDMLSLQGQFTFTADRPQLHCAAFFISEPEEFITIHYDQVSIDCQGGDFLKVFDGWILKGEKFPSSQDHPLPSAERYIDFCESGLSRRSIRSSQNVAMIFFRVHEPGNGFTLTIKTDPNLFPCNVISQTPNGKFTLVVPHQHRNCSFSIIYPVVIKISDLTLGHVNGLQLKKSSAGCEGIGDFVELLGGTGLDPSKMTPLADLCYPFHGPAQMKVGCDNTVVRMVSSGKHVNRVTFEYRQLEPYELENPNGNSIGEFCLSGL
As to the kind of experiment: activators of CRF receptor 2 with binding protein – uHTS hits, confirmation (AID 602473). It is filed as functional. To be noted: read-out: EC50_Mean.

The nature of experiment [7]: Shn3 3'UTR reporter inhibitors, dose response, cell-based, Clone20 osteoblasts, firefly luciferase, cherry-picked (AID 624132).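 Also: firefly luciferase luminescence from reporter carrying the Shn3 3'UTR in osteoblasts.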 It is filed as functional.
Experiment [8] is described as follows: inhibitors of SNCA 5'UTR-driven reporter translation, confirmation, H4 neuroglioma cells, luminescence (AID 1988). The class given is functional, cell-based.
Experiment [9] is described as follows: cells. The class given is functional, cell-based.
Experiment [10] is described as follows: Luminescence Cell-Based Dose Response HTS to Identify Inhibitors of 5'UTR Stem-Loop Driven Prion Protein mRNA Translation in H4 Neuroglioblastoma Cells. [Related pubchem assays: 1827 (Project Summary), 1813 (Primary HTS)]. The class given is functional.
A short description of experiment [11]: inhibitors of firefly luciferase expression or activity, dose response, H4 neuroglioma cells, luminescence (AID 1990). It is filed as functional, cell-based.
Experiment [12] is described as follows: cells. It is filed as functional, cell-based. This is another data set of the same source.
A further experiment relates to INS1. As to the kind of experiment: beta cell apoptosis inhibitors, cytokine rescue, dose response, luminescence, retest (AID 449756).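 Also: cell death triggered by IL-1 beta plus TNF-alpha plus IFN-gamma mixture; protective hits raise ATP signal compared with cytokine alone wells.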 The settings on record: Rattus norvegicus. The class given is functional, cell-based.
The nature of experiment [13]: inhibitors of intracellular T. cruzi replication, confirmation, NIH3T3 host cells, beta-gal luminescence (AID 2044).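 Also: intracellular parasites grown in NIH/3T3 mouse fibroblasts as host cells; luminescent beta-galactosidase reporter signal from transgenic T. cruzi replicating inside host cells; inhibitors lower the luminescence signal.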 It is filed as functional, cell-based.
A short description of experiment [14]: cytotoxicity toward NIH3T3 fibroblasts, dose response, counter-screen, cell-based, ATP luminescence, mouse fibroblasts (AID 2010).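 Also: cells exposed to compound for about 90 hours before reading.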 It is filed as functional. (In general: The purpose of a counterscreen is to sort out artefacts and off-target activity.)

Genome polyprotein, sequence (P29990 2492-3391 limits assumed): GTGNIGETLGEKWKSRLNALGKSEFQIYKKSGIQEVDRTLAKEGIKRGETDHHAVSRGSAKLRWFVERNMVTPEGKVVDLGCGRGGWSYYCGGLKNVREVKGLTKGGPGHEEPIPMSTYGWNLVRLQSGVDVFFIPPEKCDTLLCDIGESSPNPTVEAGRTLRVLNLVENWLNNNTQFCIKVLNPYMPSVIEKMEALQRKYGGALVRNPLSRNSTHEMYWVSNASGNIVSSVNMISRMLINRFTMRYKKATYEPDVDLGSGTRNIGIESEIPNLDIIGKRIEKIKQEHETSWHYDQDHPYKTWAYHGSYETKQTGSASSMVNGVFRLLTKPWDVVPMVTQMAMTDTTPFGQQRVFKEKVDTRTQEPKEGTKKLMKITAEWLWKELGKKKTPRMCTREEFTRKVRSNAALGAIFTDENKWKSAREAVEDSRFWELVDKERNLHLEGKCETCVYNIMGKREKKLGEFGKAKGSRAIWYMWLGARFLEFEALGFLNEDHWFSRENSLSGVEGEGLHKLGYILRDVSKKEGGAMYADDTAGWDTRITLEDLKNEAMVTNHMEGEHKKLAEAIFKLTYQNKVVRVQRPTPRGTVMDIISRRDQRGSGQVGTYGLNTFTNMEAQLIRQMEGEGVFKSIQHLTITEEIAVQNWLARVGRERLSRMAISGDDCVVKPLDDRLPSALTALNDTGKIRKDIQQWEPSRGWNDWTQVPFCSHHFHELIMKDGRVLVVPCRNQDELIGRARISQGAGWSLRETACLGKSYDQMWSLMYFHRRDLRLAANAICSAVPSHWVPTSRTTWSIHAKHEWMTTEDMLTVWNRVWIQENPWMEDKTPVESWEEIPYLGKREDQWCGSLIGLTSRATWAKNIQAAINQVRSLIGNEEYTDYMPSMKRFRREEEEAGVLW
Fatty acid synthase, sequence (P49327 whole entry, the tested form may be a part): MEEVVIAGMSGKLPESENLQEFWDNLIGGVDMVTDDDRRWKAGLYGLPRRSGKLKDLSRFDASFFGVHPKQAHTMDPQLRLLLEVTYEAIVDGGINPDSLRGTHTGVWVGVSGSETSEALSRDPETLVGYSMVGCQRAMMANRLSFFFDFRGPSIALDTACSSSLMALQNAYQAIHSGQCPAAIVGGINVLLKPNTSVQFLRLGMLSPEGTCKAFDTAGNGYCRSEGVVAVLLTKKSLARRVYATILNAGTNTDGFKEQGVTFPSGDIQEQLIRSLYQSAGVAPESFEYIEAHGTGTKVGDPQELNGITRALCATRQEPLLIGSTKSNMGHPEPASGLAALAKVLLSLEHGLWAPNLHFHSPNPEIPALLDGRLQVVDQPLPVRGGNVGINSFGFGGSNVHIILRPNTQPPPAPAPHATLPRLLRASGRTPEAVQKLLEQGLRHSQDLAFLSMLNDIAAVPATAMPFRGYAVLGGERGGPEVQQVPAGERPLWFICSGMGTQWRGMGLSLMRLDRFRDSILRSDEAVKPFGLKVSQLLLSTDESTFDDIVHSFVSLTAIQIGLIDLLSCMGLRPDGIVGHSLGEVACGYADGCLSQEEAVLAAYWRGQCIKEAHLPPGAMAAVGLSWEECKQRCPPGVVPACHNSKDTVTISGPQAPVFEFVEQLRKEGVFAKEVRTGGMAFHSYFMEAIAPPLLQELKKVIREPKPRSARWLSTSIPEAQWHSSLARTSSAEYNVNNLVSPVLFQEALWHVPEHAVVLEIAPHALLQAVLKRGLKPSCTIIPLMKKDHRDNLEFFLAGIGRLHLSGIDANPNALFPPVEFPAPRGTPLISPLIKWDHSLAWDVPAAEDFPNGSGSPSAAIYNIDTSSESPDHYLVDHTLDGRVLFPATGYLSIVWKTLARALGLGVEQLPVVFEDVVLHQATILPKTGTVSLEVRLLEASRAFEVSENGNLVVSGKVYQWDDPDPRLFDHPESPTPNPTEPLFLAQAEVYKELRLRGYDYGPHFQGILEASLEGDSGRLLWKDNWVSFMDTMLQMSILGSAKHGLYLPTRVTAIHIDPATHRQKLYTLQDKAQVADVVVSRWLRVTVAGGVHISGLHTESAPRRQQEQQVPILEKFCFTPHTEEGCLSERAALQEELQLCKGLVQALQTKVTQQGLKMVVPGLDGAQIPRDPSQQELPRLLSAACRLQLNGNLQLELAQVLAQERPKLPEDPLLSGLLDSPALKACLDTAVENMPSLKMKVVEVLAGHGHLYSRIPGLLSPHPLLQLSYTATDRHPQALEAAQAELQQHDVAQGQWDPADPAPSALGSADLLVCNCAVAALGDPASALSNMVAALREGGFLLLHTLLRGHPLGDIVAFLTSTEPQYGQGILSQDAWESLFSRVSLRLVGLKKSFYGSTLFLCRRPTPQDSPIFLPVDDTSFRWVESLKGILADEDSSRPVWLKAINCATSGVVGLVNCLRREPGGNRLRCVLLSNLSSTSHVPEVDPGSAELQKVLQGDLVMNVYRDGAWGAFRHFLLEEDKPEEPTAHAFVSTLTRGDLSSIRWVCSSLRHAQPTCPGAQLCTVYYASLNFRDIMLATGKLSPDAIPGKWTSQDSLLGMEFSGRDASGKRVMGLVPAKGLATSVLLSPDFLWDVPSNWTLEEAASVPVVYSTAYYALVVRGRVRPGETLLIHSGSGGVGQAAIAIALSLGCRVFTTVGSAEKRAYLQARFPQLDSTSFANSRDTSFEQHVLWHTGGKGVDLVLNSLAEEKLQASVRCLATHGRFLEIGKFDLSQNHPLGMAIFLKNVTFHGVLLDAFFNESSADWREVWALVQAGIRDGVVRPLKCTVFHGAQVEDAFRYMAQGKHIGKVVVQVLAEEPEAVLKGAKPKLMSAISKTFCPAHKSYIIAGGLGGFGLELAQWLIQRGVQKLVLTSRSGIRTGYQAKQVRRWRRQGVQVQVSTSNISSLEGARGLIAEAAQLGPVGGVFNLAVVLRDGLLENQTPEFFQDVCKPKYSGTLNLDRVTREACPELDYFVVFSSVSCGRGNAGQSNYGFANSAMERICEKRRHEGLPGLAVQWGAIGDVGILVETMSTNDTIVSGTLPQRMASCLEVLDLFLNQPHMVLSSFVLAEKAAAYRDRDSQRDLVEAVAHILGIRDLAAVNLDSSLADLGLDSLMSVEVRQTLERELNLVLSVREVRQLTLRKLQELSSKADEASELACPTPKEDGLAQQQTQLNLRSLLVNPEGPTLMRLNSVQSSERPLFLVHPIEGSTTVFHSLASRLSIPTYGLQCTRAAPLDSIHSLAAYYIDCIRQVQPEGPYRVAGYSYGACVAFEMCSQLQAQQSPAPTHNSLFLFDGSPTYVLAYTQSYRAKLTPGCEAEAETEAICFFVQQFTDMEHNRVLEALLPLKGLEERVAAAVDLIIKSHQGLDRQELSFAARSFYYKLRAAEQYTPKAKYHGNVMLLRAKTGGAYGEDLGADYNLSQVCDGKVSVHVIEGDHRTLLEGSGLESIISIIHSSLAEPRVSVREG

Regarding `COc1ccccc1CCC(=O)OCC(=O)Nc1c(Br)cc(C)cc1Br`, the EC50 in [1] was > 260 µM (inactive). As to `CC(NC(=O)OCc1ccccc1)C(=O)Oc1cc2oc(=O)cc(-c3ccccc3)c2cc1Cl` (stereo not drawn), the EC50 in experiment [2] was 1.09 µM (active); in experiment [3], > 150 µM (inactive). Consider `Oc1ccc(N=Nc2ccccc2-c2nn[nH]n2)c(O)c1`, for which, on Genome polyprotein, the concentration for half-maximal inhibition (IC50) was > 100 µM (active). Besides, the EC50 in [4] and in experiment [5] was > 300 µM (not active) in each case. In the case of `O=C(NCCc1ccccc1)c1c(O)c2cccc3c2n(c1=O)CC3`, the figures for the EC50 in experiment [2] and in [3] were > 38 µM (not active) and > 150 µM (inactive), respectively. Take `O=C(c1ccc(Cl)c([N+](=O)[O-])c1)N1CCN(c2ccccc2)CC1`: the IC50 on Fatty acid synthase was 11.9 µM (active). For the compound `O=C(COC(=O)c1ccccc1C(=O)c1ccccc1)Nc1cccc([N+](=O)[O-])c1`, the EC50 in experiment [1] was > 260 µM (inactive). On to `C=CCn1c(COc2ccc(F)cc2)nnc1SCC(=O)Nc1cccc(S(N)(=O)=O)c1`, for which the EC50 in experiment [3] was > 160 µM (inactive). With `CCOC(=O)c1c(-c2ccc(C)o2)csc1NC(=O)CSc1nncs1`, the EC50 in experiment [1] was > 260 µM (inactive). Turning to `Cc1c(Cl)c(C(=O)NC2CCCC2)nn1C`, the EC50 in experiment [1] is > 260 µM (inactive). `COc1ccccc1CN1CC(C(=O)NCCc2ncccc2C)CCC1=O` (stereo not drawn): the EC50 in [1] is > 260 µM (inactive).

Take `O=C(O)/C(=C\c1ccc(Cl)c([N+](=O)[O-])c1)c1ccc(S(=O)(=O)N2CCCCC2)s1`: the IC50 on Genome polyprotein is 81.4 µM (active). For the compound `C=C(C)CSc1nc(O)cc(C)c1C#N`, the results for the EC50 in experiment [2] and in experiment [3] were 1.86 µM (active) and > 150 µM (inactive), respectively.

On to `Cc1cc(-c2nnc(CCC(=O)N(C)Cc3cccc4ccccc34)o2)no1`, for which the EC50 in [1] is > 260 µM (inactive). Take `CCOC(=O)Cc1csc(NC(=O)CSc2nc(O)c3c(C)c(C(=O)O)sc3n2)n1`: the results for the EC50 in [2] and in [3] were 5.45 µM (active) and 104 µM (active), respectively.

As to `COc1cc(-c2nnc3sc(Cc4ccc(Cl)cc4)nn23)cc(OC)c1OC`, in experiment [1], the EC50 was > 260 µM (inactive).

Take `COc1ccc(-c2csc(NC(=O)c3ccccc3Br)c2C(=O)O)cc1`: the IC50 at Genome polyprotein is 74.4 µM (active).

`CCCN(CC(=O)Nc1ccc(Cl)cc1Cl)C(=O)/C=C/c1ccco1`: the EC50 in [1] is 17.6 µM (active). `O=C(O)c1cccc(Nc2nc3ccccc3nc2NS(=O)(=O)c2cccs2)c1`: on Genome polyprotein, the half-inhibitory concentration (IC50) is 66.3 µM (active). In the case of `O=S(=O)([O-])CCC[n+]1c(SCCCS(=O)(=O)O)sc2ccc(Cl)cc21`, the IC50 on Genome polyprotein is > 100 µM (active).

Take `COc1ccc(C2(c3ccc(OC)cc3)NC(=O)N(CC(=O)N(C)c3ccccc3)C2=O)cc1`: the EC50 in experiment [1] is > 260 µM (inactive).

As for `CN1C(=O)C2(c3ccccc31)N(C)CC(c1ccccn1)C21SC(=S)N(Cc2ccco2)C1=O` (stereo not drawn), the EC50 in [1] is > 260 µM (inactive). Regarding `O=C1NC[C@@H](c2ccccc2)OC(=O)[C@H](Cc2ccc(F)cc2)CC/C=C/C[C@H]1CC(=O)N(CCO)Cc1ccccc1`, the EC50 in experiment [6] is > 53 µM (inactive).

Take `CC1(Cc2ccc(OC(F)(F)F)cc2)C(=O)Nc2c(Cl)ccc(Cl)c21` (stereo not drawn): the AC50 in [7] is 25.7 µM (active). Regarding `O=C(N/N=C/c1cc([N+](=O)[O-])ccc1O)c1cccc2cc[nH]c12`, the EC50 in experiment [8] is 14.8 µM (active); in “cells [9]”, 24.6 µM (active); in [10], 10.3 µM (active); in experiment [11] it was > 120 µM (not active); in the experiment “cells [12]”, 311 µM (active). In addition, the AC50 in the experiment on INS1 was 2.02 µM (active). Take `CN(C)S(=O)(=O)c1cccc(NC(=S)N/N=C/c2cc(Br)ccc2O)c1`: the EC50 in “cells [9]” was > 350 µM (not active); in experiment [13] it was 2.27 µM (active); in experiment [2], 2.83 µM (active); in “cells [12]”, 7.76 µM (active); in experiment [14], > 60 µM (not active); in [3], > 150 µM (inactive). The AC50 with INS1 was 0.481 µM (active). Regarding `O=C1CSC(=S)N1N=Cc1c(F)cccc1Cl`, in experiment [6], the EC50 was > 53 µM (inactive). With `CSCCC(NC(=O)c1ccccc1)C(=O)N/N=C(\C)c1ccccc1` (stereo not drawn), the EC50 in experiment [6] was 7.06 µM (active).

In the case of `COc1ccc(C(=O)NN/C(C)=C/C(=O)C(F)(F)C(F)(F)C(F)(F)F)cc1`, the values for the EC50 in experiment [2] and in experiment [3] were 0.384 µM (active) and 47.2 µM (active), respectively. In addition, the AC50 in the experiment with INS1 was 32.5 µM (active). Turning to `C=CCC1=C/C(=C\c2c(N)n3nc(CC(=O)N4CCCC4)sc3nc2=O)C=C(OC)C1=O`, the EC50 in experiment [6] is 10.6 µM (active).

A word on the IC50: it is the concentration that inhibits the measured activity by half. By AC50 is commonly meant the concentration giving half of the maximal activity seen.
